The values below come from patent US12398154B2, “Azaquinazoline pan-KRas inhibitors” (Mirati Therapeutics, Inc., priority 2020, dated 2025).

Common to all, as to assay: biochemical
The target in test [1] is KRas G12D (Homo sapiens, UniProt P01116, G12D).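 Further: TR-FRET displacement binding assay on KRas, read after a one-hour incubation at room temperature, IC50 fitted from percent-of-control values.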
Method: (§1) The ability of a compound to bind to KRas was measured using a TR-FRET displacement assay. […] After a 60-minute incubation at room temperature, the reaction was measured using a BMG LABTECH CLARIO star Plus via TR-FRET. […] The POC values were fit to a 4-parameter IC50 equation and the IC50 value reported.
Test [2] concerns the target KRas G12R (Homo sapiens, UniProt P01116, G12R).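 Further: TR-FRET displacement assay of compound binding to KRas, read after one hour at room temperature, potency from a four-parameter fit of percent-of-control values.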
Method: as §1
The target of test [3] is KRas G12C (Homo sapiens, UniProt P01116, G12C).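 Further: binding to KRas assessed by TR-FRET displacement after one hour incubation at room temperature, potency fitted from percent-of-control values.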
Method: as §1
Test [4] concerns the target KRas G12A (Homo sapiens, UniProt P01116, G12A).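 Further: binding to KRas measured by TR-FRET displacement after one hour at room temperature, IC50 from a four-parameter fit of percent-of-control values.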
Method: as §1
Test [5] concerns the target KRas WT (Homo sapiens, UniProt P01116).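 Further: binding to KRas read as TR-FRET displacement after a one-hour room-temperature incubation, IC50 derived from percent-of-control values.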
Method: as §1
Test [6] deals with KRas G12S (Homo sapiens, UniProt P01116, G12S).
Method: as §1
The target of test [7] is KRas G12V (Homo sapiens, UniProt P01116, G12V).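 Further: KRas binding measured by TR-FRET displacement at room temperature, IC50 fitted from percent of control values.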
Chain of KRas G12V (P01116 1-169 isoform P01116-2 G12V): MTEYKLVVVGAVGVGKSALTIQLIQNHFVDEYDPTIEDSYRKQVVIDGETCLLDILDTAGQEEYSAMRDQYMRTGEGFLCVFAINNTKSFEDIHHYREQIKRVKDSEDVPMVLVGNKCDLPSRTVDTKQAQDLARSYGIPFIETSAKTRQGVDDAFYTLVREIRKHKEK
Method: as §1

Chain of KRas G12C (P01116 1-169 isoform P01116-2 G12C): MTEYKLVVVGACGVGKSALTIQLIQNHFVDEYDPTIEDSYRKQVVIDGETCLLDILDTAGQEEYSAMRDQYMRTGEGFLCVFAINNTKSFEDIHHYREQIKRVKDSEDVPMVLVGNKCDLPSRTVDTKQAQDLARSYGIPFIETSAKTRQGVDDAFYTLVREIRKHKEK
Chain of KRas G12A (P01116 1-169 isoform P01116-2 G12A): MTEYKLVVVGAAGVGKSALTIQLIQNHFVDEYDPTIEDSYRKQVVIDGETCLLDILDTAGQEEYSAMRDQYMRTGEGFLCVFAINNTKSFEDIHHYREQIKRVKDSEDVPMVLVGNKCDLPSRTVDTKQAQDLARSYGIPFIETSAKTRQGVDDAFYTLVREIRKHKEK
Chain of KRas G12D (P01116 1-169 isoform P01116-2 G12D): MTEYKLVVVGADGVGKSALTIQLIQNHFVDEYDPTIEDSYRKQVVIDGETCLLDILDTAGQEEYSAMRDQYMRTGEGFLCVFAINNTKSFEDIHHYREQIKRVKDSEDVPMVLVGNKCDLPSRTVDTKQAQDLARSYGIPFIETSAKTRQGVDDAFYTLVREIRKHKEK
Chain of KRas G12R (P01116 1-169 isoform P01116-2 G12R): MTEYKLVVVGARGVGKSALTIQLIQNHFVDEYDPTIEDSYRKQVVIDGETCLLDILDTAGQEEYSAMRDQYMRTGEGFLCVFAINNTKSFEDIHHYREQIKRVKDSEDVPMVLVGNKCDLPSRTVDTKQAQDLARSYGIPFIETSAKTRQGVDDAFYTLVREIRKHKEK
Chain of KRas WT (P01116 1-169 isoform P01116-2): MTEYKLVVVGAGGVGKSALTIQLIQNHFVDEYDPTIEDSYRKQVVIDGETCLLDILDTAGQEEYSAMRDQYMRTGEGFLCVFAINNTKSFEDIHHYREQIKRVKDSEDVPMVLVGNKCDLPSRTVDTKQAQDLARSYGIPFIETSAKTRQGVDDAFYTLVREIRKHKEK
Chain of KRas G12S (P01116 1-169 isoform P01116-2 G12S): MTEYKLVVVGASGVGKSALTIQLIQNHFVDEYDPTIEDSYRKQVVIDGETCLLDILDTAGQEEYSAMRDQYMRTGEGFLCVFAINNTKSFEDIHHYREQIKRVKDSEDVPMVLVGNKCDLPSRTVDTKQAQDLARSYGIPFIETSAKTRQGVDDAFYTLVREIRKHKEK

Turning to `N#Cc1cccc2cccc(-c3ncc4c(N5CCCC6(C5)NC(=O)NC6=O)nc(OCC56CCCN5CCC6)nc4c3F)c12` (stereo not drawn) [Example 449, 8-(4-(2,4-dioxo-1,3,7-triazaspiro[4.5]decan-7-yl)-8-fluoro-2-((hexahydro-1H-pyrrolizin-7a-yl)methoxy)pyrido[4,3-d]pyrimidin-7-yl)-1-naphthonitrile], the IC50 in test [1] was determined as 8390 nM; in test [2] it was 4380 nM; in test [3] it was 3600 nM; in test [4] it was 5620 nM; in test [5], 4070 nM; in test [6] it was 4160 nM. In addition, in test [7], the IC50 came out at 3660 nM.

For `Cc1cccc2cccc(-c3ncc4c(N5CCCC6(CC(=O)N6)C5)nc(OCC56CCCN5CCC6)nc4c3F)c12` (stereo not drawn) [Example 450, 6-(8-fluoro-2-((hexahydro-1H-pyrrolizin-7a-yl)methoxy)-7-(8-methylnaphthalen-1-yl)pyrido[4,3-d]pyrimidin-4-yl)-1,6-diazaspiro[3.5]nonan-2-one], the IC50 is 250 nM in test [1]; 344 nM in test [2]; 235 nM in test [3]; 356 nM in test [4]; 335 nM in test [5]; 276 nM in test [6]. Besides, half-maximal inhibition in test [7] (IC50) required 238 nM.

In the case of `N#Cc1cccc2cccc(-c3ncc4c(N5CCCC6(CC(=O)N6)C5)nc(OCC56CCCN5CCC6)nc4c3F)c12` (stereo not drawn) [Example 451, 8-(8-fluoro-2-((hexahydro-1H-pyrrolizin-7a-yl)methoxy)-4-(2-oxo-1,6-diazaspiro[3.5]nonan-6-yl)pyrido[4,3-d]pyrimidin-7-yl)-1-naphthonitrile], the IC50 was 2580 nM in test [1]; 4170 nM in test [2]; 1900 nM in test [3]; 3120 nM in test [4]; 2270 nM in test [5]; 2060 nM in test [6]. In addition, the IC50 in test [7] was 2860 nM.

As to `O=C1NCC2(CCCN(c3nc(OCC45CCCN4CCC5)nc4c(F)c(-c5cccc6cccc(CO)c56)ncc34)C2)N1` (stereo not drawn) [Example 453, 7-(8-fluoro-2-((hexahydro-1H-pyrrolizin-7a-yl)methoxy)-7-(8-(hydroxymethyl)naphthalen-1-yl)pyrido[4,3-d]pyrimidin-4-yl)-1,3,7-triazaspiro[4.5]decan-2-one], the IC50 was found to be 274 nM in test [1]; 1120 nM in test [2]; 484 nM in test [3]; 559 nM in test [4]; 467 nM in test [5]; 459 nM in test [6]. This compound also displayed an IC50 in test [7] of 569 nM.

With `Cc1cccc2cccc(-c3ncc4c(N5CCCC6(CNC(=O)N6)C5)nc(OCC56CCCN5CCC6)nc4c3F)c12` (stereo not drawn) [Example 454, 7-(8-fluoro-2-((hexahydro-1H-pyrrolizin-7a-yl)methoxy)-7-(8-methylnaphthalen-1-yl)pyrido[4,3-d]pyrimidin-4-yl)-1,3,7-triazaspiro[4.5]decan-2-one], the IC50 in test [1] is 105 nM; in test [2] it was 421 nM; in test [3], 157 nM; in test [4], 176 nM; in test [5] it was 163 nM; in test [6], 167 nM. Moreover, 191 nM corresponded to half-maximal inhibition in test [7] (IC50).

On to `Cc1cccc2cccc(-c3ncc4c(N5CCCC(c6nc[nH]n6)C5)nc(OCC56CCCN5CCC6)nc4c3F)c12` (stereo not drawn) [Example 455, 4-(3-(1H-1,2,4-triazol-3-yl)piperidin-1-yl)-8-fluoro-2-((hexahydro-1H-pyrrolizin-7a-yl)methoxy)-7-(8-methylnaphthalen-1-yl)pyrido[4,3-d]pyrimidine], for which the IC50 stood at 6350 nM in test [1]; 4510 nM in test [2]; 8470 nM in test [3]; 5990 nM in test [4]; 11700 nM in test [5]; 8170 nM in test [6]. Further, the IC50 in test [7] is 5150 nM.

`C#Cc1cccc2cccc(-c3ncc4c(N5C[C@@H]6C(=O)NC(=O)[C@@H]6C5)nc(OCC56CCCN5CCC6)nc4c3F)c12` [Example 458, (3aR,6aS)-5-(7-(8-ethynylnaphthalen-1-yl)-8-fluoro-2-((hexahydro-1H-pyrrolizin-7a-yl)methoxy)pyrido[4,3-d]pyrimidin-4-yl)tetrahydropyrrolo[3,4-c]pyrrole-1,3(2H,3aH)-dione]: the IC50 in test [1] worked out at 15 nM; in test [2], 172 nM; in test [3], 75 nM; in test [4] it was 97 nM; in test [5], 53 nM; in test [6] it was 28 nM. Further, in test [7], the IC50 is 39 nM.

With `NS(=O)(=O)CC1CCCN(c2nc(OCC34CCCN3CCC4)nc3c(F)c(-c4cccc5cccc(CF)c45)ncc23)C1` (stereo not drawn) [Example 460, 1-(1-(8-fluoro-7-(8-(fluoromethyl)naphthalen-1-yl)-2-((hexahydro-1H-pyrrolizin-7a-yl)methoxy)pyrido[4,3-d]pyrimidin-4-yl)piperidin-3-yl)methanesulfonamide], the IC50 in test [1] was found to be 2320 nM; in test [2], 548 nM; in test [3], 916 nM; in test [4], 760 nM; in test [5], 693 nM; in test [6] it was 759 nM. The same compound had an IC50 in test [7] of 1470 nM.

In the case of `O=C1NC(=O)C2(CCCN(c3nc(OCC45CCCN4CCC5)nc4c(F)c(-c5cccc6cccc(CF)c56)ncc34)C2)N1` (stereo not drawn) [Example 462, 7-(8-fluoro-7-(8-(fluoromethyl)naphthalen-1-yl)-2-((hexahydro-1H-pyrrolizin-7a-yl)methoxy)pyrido[4,3-d]pyrimidin-4-yl)-1,3,7-triazaspiro[4.5]decane-2,4-dione], the IC50 in test [1] was 880 nM; in test [2] it was 418 nM; in test [3], 430 nM; in test [4] it was 321 nM; in test [5], 493 nM; in test [6], 311 nM. In test [7], this compound returned an IC50 of 350 nM.

On to `NS(=O)(=O)CC1CCCN(c2nc(OCC34CCCN3CCC4)nc3c(F)c(-c4cccc5cccc(C(F)F)c45)ncc23)C1` (stereo not drawn) [Example 463, 1-(1-(7-(8-(difluoromethyl)naphthalen-1-yl)-8-fluoro-2-((hexahydro-1H-pyrrolizin-7a-yl)methoxy)pyrido[4,3-d]pyrimidin-4-yl)piperidin-3-yl)methanesulfonamide], for which the IC50 in test [1] was found to be 6490 nM; in test [2] it was 1360 nM; in test [3], 2150 nM; in test [4] it was 1550 nM; in test [5], 2400 nM; in test [6], 1400 nM. In test [7], this compound yielded an IC50 of 3060 nM.

For the compound `O=C1NC(=O)C2(CCCN(c3nc(OCC45CCCN4CCC5)nc4c(F)c(-c5cccc6cccc(C(F)F)c56)ncc34)C2)N1` (stereo not drawn) [Example 464, 7-(7-(8-(difluoromethyl)naphthalen-1-yl)-8-fluoro-2-((hexahydro-1H-pyrrolizin-7a-yl)methoxy)pyrido[4,3-d]pyrimidin-4-yl)-1,3,7-triazaspiro[4.5]decane-2,4-dione], the IC50 worked out at 986 nM in test [1]; 513 nM in test [2]; 459 nM in test [3]; 507 nM in test [4]; 661 nM in test [5]; 355 nM in test [6]. In test [7], this compound returned an IC50 of 469 nM.

Regarding `O=C1CC2(CCCN(c3nc(OCC45CCCN4CCC5)nc4c(F)c(-c5cccc6cccc(C(F)F)c56)ncc34)C2)N1` (stereo not drawn) [Example 466, 6-(7-(8-(difluoromethyl)naphthalen-1-yl)-8-fluoro-2-((hexahydro-1H-pyrrolizin-7a-yl)methoxy)pyrido[4,3-d]pyrimidin-4-yl)-1,6-diazaspiro[3.5]nonan-2-one], the IC50 in test [1] was 2320 nM; in test [2], 2260 nM; in test [3] it was 2310 nM; in test [4], 3310 nM; in test [5], 2680 nM; in test [6], 2140 nM. The same compound showed an IC50 in test [7] of 1660 nM.

Regarding `O=C1CC2(CCCN(c3nc(OCC45CCCN4CCC5)nc4c(F)c(-c5cccc6cccc(C(F)(F)F)c56)ncc34)C2)N1` (stereo not drawn) [Example 467, 6-(8-fluoro-2-((hexahydro-1H-pyrrolizin-7a-yl)methoxy)-7-(8-(trifluoromethyl)naphthalen-1-yl)pyrido[4,3-d]pyrimidin-4-yl)-1,6-diazaspiro[3.5]nonan-2-one], the IC50 in test [1] came to 915 nM; in test [2], 1020 nM; in test [3] it was 1110 nM; in test [4], 968 nM; in test [5], 1480 nM; in test [6] it was 1140 nM. In addition, inhibition in test [7] was half-maximal at 651 nM (IC50).

`O=C1CC2(CCCN(c3nc(OCC45CCCN4CCC5)nc4c(F)c(-c5cccc6cccc(CF)c56)ncc34)C2)N1` (stereo not drawn) [Example 468, 6-(8-fluoro-7-(8-(fluoromethyl)naphthalen-1-yl)-2-((hexahydro-1H-pyrrolizin-7a-yl)methoxy)pyrido[4,3-d]pyrimidin-4-yl)-1,6-diazaspiro[3.5]nonan-2-one]: the IC50 in test [1] was found to be 2880 nM; in test [2], 2900 nM; in test [3], 2410 nM; in test [4] it was 2810 nM; in test [5] it was 3020 nM; in test [6], 2480 nM. Also, the IC50 in test [7] stood at 2310 nM.

Turning to `CSc1cccc2cccc(-c3ncc4c(N5CCCC6(CC(=O)N6)C5)nc(OCC56CCCN5CCC6)nc4c3F)c12` (stereo not drawn) [Example 469, 6-(8-fluoro-2-((hexahydro-1H-pyrrolizin-7a-yl)methoxy)-7-(8-(methylthio)naphthalen-1-yl)pyrido[4,3-d]pyrimidin-4-yl)-1,6-diazaspiro[3.5]nonan-2-one], the IC50 is 127 nM in test [1]; 149 nM in test [2]; 135 nM in test [3]; 180 nM in test [4]; 196 nM in test [5]; 146 nM in test [6]. The IC50 in test [7] was determined as 105 nM.

A word on the IC50: it is the concentration needed to halve the response being measured.
